Where a name gives a salt, the structure may show the parent alone.
Legend:
DNMT1 = DNMT1 (Homo sapiens, UniProt P26358); assay: DNMT1 enzyme activity assay (TR-FRET, EPIgeneous methyltransferase assay); type: biochemical
Description: The biochemical assay to measure DNMT1 enzyme activity relies on time-resolved fluorescence energy transfer (TR-FRET) between lumi4-Tb (donor) and d2 (acceptor) using the EPIgeneous methyltransferase assay (CisBio Cat#62SAHPEB). […] TR-FRET signal is inversely proportional to the concentration of SAH, product of DNMT1 enzyme activity, in the sample.
The human DNMT1 was obtained from Reaction Biology Corp. (Cat# DMT-21-124). […] Final percentage of DMSO was 0.5%. • 2 μl of 1 nM DNMT1 enzyme diluted in assay buffer.
(§1) For each well, fluorescence was measured at 620 nm and 665 nm. A ratio (665 nm/620 nm) was then calculated in order to minimize medium interferences. Positive control was obtained in the presence of the vehicle of the compounds. Negative control was obtained in the absence of G9a enzyme activity. Calculated IC50 values were determined using GraphPrism using 4-parameters inhibition curve.

human G9a enzyme = molecular target: T1, human G9a enzyme (Homo sapiens, UniProt Q96KQ7); assay: G9a enzyme activity assay (TR-FRET); type: biochemical
T1 sequence (Q96KQ7 1-1210): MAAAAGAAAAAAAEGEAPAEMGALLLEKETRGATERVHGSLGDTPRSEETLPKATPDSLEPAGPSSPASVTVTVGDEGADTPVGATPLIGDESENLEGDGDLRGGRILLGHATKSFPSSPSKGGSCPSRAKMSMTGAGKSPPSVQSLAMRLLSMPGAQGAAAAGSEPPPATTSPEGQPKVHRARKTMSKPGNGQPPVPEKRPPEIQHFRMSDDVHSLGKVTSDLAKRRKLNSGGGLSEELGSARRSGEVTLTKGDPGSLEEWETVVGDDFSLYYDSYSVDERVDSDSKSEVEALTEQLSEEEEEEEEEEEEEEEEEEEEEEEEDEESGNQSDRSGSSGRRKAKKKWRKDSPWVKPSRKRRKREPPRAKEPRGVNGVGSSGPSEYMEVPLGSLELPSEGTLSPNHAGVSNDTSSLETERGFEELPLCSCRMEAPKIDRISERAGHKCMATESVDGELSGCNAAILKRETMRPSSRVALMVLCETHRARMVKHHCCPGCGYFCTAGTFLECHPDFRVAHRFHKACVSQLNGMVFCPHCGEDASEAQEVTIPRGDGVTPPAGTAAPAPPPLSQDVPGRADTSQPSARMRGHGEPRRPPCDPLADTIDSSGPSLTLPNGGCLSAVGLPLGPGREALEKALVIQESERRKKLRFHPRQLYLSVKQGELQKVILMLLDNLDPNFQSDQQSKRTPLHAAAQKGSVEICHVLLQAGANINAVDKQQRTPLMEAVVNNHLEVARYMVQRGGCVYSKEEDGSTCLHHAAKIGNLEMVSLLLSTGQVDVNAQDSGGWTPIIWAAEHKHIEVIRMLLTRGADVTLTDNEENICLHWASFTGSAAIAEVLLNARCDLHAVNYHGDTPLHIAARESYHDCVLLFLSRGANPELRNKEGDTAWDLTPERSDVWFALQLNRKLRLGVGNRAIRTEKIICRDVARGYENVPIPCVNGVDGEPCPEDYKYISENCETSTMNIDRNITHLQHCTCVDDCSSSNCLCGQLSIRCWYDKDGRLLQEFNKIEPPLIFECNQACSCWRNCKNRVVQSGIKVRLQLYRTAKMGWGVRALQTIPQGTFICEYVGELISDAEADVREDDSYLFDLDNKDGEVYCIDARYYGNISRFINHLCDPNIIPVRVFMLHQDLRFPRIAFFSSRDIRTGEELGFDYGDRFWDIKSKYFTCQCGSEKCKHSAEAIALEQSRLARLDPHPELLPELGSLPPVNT
Description: The biochemical assay to measure G9a enzyme activity relies on time-resolved fluorescence energy transfer (TR-FRET) between europium cryptate (donor) and XL665 (acceptor). […] The human G9a enzyme expressed in a baculovirus infected Sf9 cell expression system was obtained from BPS Biosciences (Cat. #51001). […] Final percentage of DMSO was 0.5%. • 2 μl of 1 nM G9a enzyme diluted in assay buffer. […] Final concentration 150 nM. • Then, add 5 μl of streptavidin XL665 beads. Final concentration of 16 μM. • Read the plate after 1 hour of incubation at room temperature.
as §1

Chain of DNMT1 (P26358 whole entry): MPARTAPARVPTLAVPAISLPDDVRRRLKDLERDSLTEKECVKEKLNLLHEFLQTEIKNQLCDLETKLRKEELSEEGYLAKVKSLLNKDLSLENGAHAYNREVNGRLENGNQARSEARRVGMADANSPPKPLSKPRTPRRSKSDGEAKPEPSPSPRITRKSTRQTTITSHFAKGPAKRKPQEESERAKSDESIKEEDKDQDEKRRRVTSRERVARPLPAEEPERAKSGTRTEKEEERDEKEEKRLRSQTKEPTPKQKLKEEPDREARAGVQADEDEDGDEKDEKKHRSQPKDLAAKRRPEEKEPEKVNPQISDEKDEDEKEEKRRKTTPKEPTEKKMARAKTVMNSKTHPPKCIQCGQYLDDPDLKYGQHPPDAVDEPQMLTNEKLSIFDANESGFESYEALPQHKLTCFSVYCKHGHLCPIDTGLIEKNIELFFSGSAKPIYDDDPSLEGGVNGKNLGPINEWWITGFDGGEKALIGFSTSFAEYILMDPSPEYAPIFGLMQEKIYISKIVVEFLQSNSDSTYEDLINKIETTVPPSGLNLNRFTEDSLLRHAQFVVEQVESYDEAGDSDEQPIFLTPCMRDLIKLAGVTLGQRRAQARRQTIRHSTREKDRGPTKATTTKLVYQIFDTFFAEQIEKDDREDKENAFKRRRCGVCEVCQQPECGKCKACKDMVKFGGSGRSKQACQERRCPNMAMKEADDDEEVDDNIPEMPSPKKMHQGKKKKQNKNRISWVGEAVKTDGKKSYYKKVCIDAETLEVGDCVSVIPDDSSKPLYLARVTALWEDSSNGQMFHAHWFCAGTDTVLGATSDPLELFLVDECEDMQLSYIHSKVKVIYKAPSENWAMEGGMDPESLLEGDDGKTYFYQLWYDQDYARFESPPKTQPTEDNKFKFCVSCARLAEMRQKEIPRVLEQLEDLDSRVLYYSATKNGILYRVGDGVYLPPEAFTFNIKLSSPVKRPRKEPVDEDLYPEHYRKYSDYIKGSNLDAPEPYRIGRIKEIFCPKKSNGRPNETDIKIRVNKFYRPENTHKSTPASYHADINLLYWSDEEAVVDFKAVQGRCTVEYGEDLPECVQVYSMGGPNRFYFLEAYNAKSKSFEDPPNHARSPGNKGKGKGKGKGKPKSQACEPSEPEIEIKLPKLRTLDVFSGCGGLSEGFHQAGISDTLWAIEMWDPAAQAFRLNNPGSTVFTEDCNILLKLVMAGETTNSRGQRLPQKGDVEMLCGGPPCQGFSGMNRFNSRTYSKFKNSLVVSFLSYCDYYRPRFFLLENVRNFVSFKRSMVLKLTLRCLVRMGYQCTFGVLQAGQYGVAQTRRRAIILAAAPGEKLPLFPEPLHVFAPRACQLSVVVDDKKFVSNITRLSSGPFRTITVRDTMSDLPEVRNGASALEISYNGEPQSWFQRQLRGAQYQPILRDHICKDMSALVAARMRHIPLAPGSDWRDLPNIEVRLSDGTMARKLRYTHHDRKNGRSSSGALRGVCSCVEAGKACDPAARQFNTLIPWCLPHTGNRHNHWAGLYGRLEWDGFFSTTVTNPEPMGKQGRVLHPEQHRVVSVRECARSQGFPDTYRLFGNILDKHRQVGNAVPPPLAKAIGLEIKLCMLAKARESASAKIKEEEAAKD

Compound | IC50 (DNMT1) | IC50 (human G9a enzyme)
COc1cc2c(NC3CCN(C)CC3)cc(N3CCN(C)CC3)nc2cc1OCCCN1CCCC1 [Compound 1-02] | 0.5 to 1 µM | < 0.1 µM
COc1cc(NC2CCN(C)CC2)c2cc(OC)c(OCCCN3CCCC3)cc2n1 [Compound 2-01] | 1 to 10 µM | 0.1 to 0.5 µM
COc1cc2c(NCCC(F)(F)F)cc(-c3ccc(C)o3)nc2cc1OCCCN1CCCC1 [Compound 3-11] | 1 to 10 µM | 0.1 to 0.5 µM
COCCNc1cc(-c2ccc(C)o2)nc2cc(OCCCN3CCCC3)c(OC)cc12 [Compound 3-12] | 1 to 10 µM | 0.1 to 0.5 µM
COc1cc2c(NCC3CCCC3)cc(-c3ccc(C)o3)nc2cc1OCCCN1CCCC1 [Compound 3-14] | 1 to 10 µM | 1 to 10 µM
COc1cc2c(NC3CCOCC3)cc(-c3ccc(C)o3)nc2cc1OCCCN1CCCC1 [Compound 3-16] | 1 to 10 µM | 0.1 to 0.5 µM
COc1cc2c(NC3CCNC(=O)C3)cc(-c3ccc(C)o3)nc2cc1OCCCN1CCCC1 (stereo not shown) [Compound 3-18] | 1 to 10 µM | 0.1 to 0.5 µM
COc1cc2c(NC3CCN(C)CC3)cc(C)nc2cc1OCCCN1CCCC1 [Compound 3-23] | 0.5 to 1 µM | < 0.1 µM
COc1cc2c(NC3CCN(C)CC3)cc(-c3cc4ccccc4o3)nc2cc1OCCCN1CCCC1 [Compound 3-25] | 1 to 10 µM | 1 to 10 µM
COc1cc2c(NC3CCN(C)CC3)cc(-c3cccnc3)nc2cc1OCCCN1CCCC1 [Compound 3-30] | 1 to 10 µM | < 0.1 µM
COc1cc2c(NC3CCN(C)CC3)cc(-c3ccc(-c4ccccc4)o3)nc2cc1OCCCN1CCCC1 [Compound 3-32] | 1 to 10 µM | 1 to 10 µM
COc1cc2c(NC3CCN(C)CC3)cc(-c3ccn(C)n3)nc2cc1OCCCN1CCCC1 [Compound 3-33] | 1 to 10 µM | < 0.1 µM
COc1cc2c(NC3CCN(C)CC3)cc(-c3ccccc3C)nc2cc1OCCCN1CCCC1 [Compound 3-34] | 1 to 10 µM | < 0.1 µM
COc1cc2c(NC3CCN(C)CC3)cc(-c3cc(C)oc3C)nc2cc1OCCCN1CCCC1 [Compound 3-35] | 0.5 to 1 µM | < 0.1 µM
COc1cc2c(NC3CCN(C)CC3)cc(-c3cc[nH]c(=O)c3)nc2cc1OCCCN1CCCC1 [Compound 3-37] | 1 to 10 µM | 0.1 to 0.5 µM
COc1cc2c(NC3CCCC3)cc(-c3ccc(C)[nH]3)nc2cc1OCCCN1CCCC1 [Compound 3-38] | 0.1 to 0.5 µM | < 0.1 µM
COc1cc2c(NC3CCC(C)(O)CC3)cc(-c3ccc(C)o3)nc2cc1OCCCN1CCCC1 (stereo not shown) [Compound 3-45] | 1 to 10 µM | 0.1 to 0.5 µM
COc1cc2c(NC3CCC34CCNCC4)cc(-c3ccc(C)o3)nc2cc1OCCCN1CCCC1 (stereo not shown) [Compound 4-01, N-(7-azaspiro[3.5]nonan-3-yl)-6-methoxy-2-(5-methyl-2-furyl)-7-(3-pyrrolidin-1-ylpropoxy)quinolin-4-amine; 2,2,2-trifluoroacetic acid] | 0.1 to 0.5 µM | < 0.1 µM

Compound | IC50 (DNMT1) | IC50 (human G9a enzyme)
COc1cc2c(NC3CC4(CCNCC4)C3)cc(-c3ccc(C)[nH]3)nc2cc1OCCCN1CCCC1 [Compound 4-02, N-(7-azaspiro[3.5]nonan-2-yl)-6-methoxy-2-(5-methyl-1H-pyrrol-2-yl)-7-(3-pyrrolidin-1-ylpropoxy)quinolin-4 amine; hydrochloride] | 1 to 10 µM | < 0.1 µM
COc1cc2c(NC3CCN(C)CC3)cc(C3=CCOCC3)nc2cc1OCCCN1CCCC1 [Compound 6-02] | 0.5 to 1 µM | < 0.1 µM
COc1cc2c(NC3CCN(C)CC3)cc(C3CCCCC3)nc2cc1OCCCN1CCCC1 [Compound 7-01, 2-cyclohexyl-6-methoxy-N-(1-methyl-4-piperidyl)-7-(3-pyrrolidin-1-ylpropoxy)quinolin-4-amine; 2,2,2-trifluoroacetic acid] | 0.1 to 0.5 µM | < 0.1 µM
COc1cc2c(NC3CCN(C)CC3)cc(C3CCOCC3)nc2cc1OCCCN1CCCC1 [Compound 7-02, 6-methoxy-N-(1-methyl-4-piperidyl)-7-(3-pyrrolidin-1-ylpropoxy)-2-tetrahydropyran-4-yl-quinolin-4-amine; 2,2,2-trifluoroacetic acid] | 1 to 10 µM | < 0.1 µM
COc1cc2c(NC3CCNCC3)cc(C3CCCCC3)nc2cc1OCCCN1CCCC1 [Compound 7-04, 2-cyclohexyl-6-methoxy-N-(4-piperidyl)-7-(3-pyrrolidin-1-ylpropoxy)quinolin-4-amine; 2,2,2-trifluoroacetic acid] | 0.5 to 1 µM | < 0.1 µM
COc1cc2c(NC3CCN(C)CC3)cc(-c3ccc(CN(C)C)o3)nc2cc1OCCCN1CCCC1 [Compound 8-01, 2-[5-[(dimethylamino)methyl]-2-furyl]-6-methoxy-N-(1-methyl-4-piperidyl)-7-(3-pyrrolidin-1-ylpropoxy)quinolin-4-amine; 2,2,2-trifluoroacetic acid] | 1 to 10 µM | 0.1 to 0.5 µM
CCNCc1ccc(-c2cc(NC3CCN(C)CC3)c3cc(OC)c(OCCCN4CCCC4)cc3n2)o1 [Compound 8-02] | 0.5 to 1 µM | < 0.1 µM
COc1cc2c(NC3CCN(C)CC3)cc(-c3ccc(CO)o3)nc2cc1OCCCN1CCCC1 [Compound 9-01, [5-[6-methoxy-4-[(1-methyl-4-piperidyl)amino]-7-(3-pyrrolidin-1-ylpropoxy)-2-quinolyl]-2-furyl]methanol; 2,2,2-trifluoroacetic acid] | 0.5 to 1 µM | < 0.1 µM
COc1cc2c(NC3CCN(C)CC3)cc(-c3ccc(C#N)o3)nc2cc1OCCCN1CCCC1 [Compound 10-01, 5-[6-methoxy-4-[(1-methyl-4-piperidyl)-amino]-7-(3-pyrrolidin-1-ylpropoxy)-2-quinolyl]furan-2-carbonitrile; 2,2,2-trifluoroacetic acid] | 1 to 10 µM | 0.1 to 0.5 µM
CCc1ccc(-c2cc(NC3CCN(C)CC3)c3cc(OC)c(OCC4CCNCC4)cc3n2)o1 [Compound 11-03] | 0.5 to 1 µM | 1 to 10 µM
COc1cc2c(NCC3CCN(C)CC3)cc(-c3ccc(C)[nH]3)nc2cc1OCC1CCNCC1 [Compound 11-06] | 0.1 to 0.5 µM | 0.1 to 0.5 µM
COc1cc2c(NCC3CCN(C)C(=O)C3)cc(-c3ccc(C)[nH]3)nc2cc1OCC1CCNCC1 (stereo not shown) [Compound 11-07] | 0.5 to 1 µM | 0.5 to 1 µM
COc1cc2c(NC3CC3)cc(-c3ccc(C)[nH]3)nc2cc1OCC1CCNCC1 [Compound 11-08] | 1 to 10 µM | 1 to 10 µM
COc1cc2c(NC3CC4(CCNCC4)C3)cc(-c3ccc(C)[nH]3)nc2cc1OCC1CCNCC1 [Compound 11-09] | 0.1 to 0.5 µM | 0.1 to 0.5 µM
COc1cc2c(NC3CC4(CCNCC4)C3)cc(-c3ccc(C)o3)nc2cc1OCC1CCNCC1 [Compound 11-10] | 0.1 to 0.5 µM | 1 to 10 µM
COc1cc2c(NC3CCN(C)C(=O)C3)cc(-c3ccc(C)[nH]3)nc2cc1OCC1CCNCC1 (stereo not shown) [Compound 11-11] | 0.5 to 1 µM | 0.5 to 1 µM
COc1cc2c(NC3CCN(C)C(=O)C3)cc(-c3ccc(C)[nH]3)nc2cc1OCC1CCN(C)CC1 (stereo not shown) [Compound 12-04] | 0.5 to 1 µM | 1 to 10 µM
